The subject of experiment [1] is Human immunodeficiency virus type 1 (BRU ISOLATE). Put plainly: Antiviral activity against Human immunodeficiency virus type 1 (BRU ISOLATE). Type of experiment: functional.
Experiment [2] deals with Human immunodeficiency virus 2. Put plainly: Antiviral activity against Human immunodeficiency virus type 2 (ISOLATE ROD). Type of experiment: functional, organism-based.
For experiment [3], the system named is Human immunodeficiency virus 1. The experiment is described as follows: Antiviral activity against HIV-1 group O expressing gp41 N42D, N43K mutant gene. It counts as functional.
In experiment [4] the test system is Human immunodeficiency virus 1. The experiment is described as follows: Antiviral activity against HIV-1 group O. The conditions noted are these: Human immunodeficiency virus 1, group O.
The test system of experiment [5] is Human immunodeficiency virus 1. Put plainly: Antiviral activity against HIV-1 group O expressing gp41 E119Q mutant gene. It counts as functional.
The test system of experiment [6] is Human immunodeficiency virus 1. The experiment is described as follows: Antiviral activity against HIV-1 group O expressing gp41 T27A mutant gene. It counts as functional.
Experiment [7] has as its system Human immunodeficiency virus 1. The experiment is described as follows: Antiviral activity against HIV-1 group M. The conditions noted are these: Human immunodeficiency virus 1, group M.

Data on one substance can be found in ChEMBL document CHEMBL1671702, “Baseline genotypic and phenotypic susceptibilities of HIV-1 group O to enfuvirtide” (Antimicrob Agents Chemother, 2010).

The source made the active and inactive calls. The rule behind the calls is not given here. Some results are limits rather than exact numbers.

One may read the IC50 as the concentration that gives 50% inhibition. A higher IC50 goes with weaker potency. For the substance enfuvirtide, in experiment [1], the outcome was Active. The outcome in experiment [2] was inactive. Also, the half-maximal inhibitory concentration (IC50) in experiment [3] is 6.4 nM; in experiment [4] it was 4 nM; in experiment [5], over 1000 nM; in experiment [6], over 1000 nM; in experiment [7] it was 6.4 nM.
